From US8815862B2, “Co-crystal intermediates of rosuvastatin and methods of using same” (F.I.S. Fabbrica Italiana Sintetici S.p.A., priority 2011, dated 2014)

Tests used:
[1] = Stability study at 40° C. under vacuum (impurity/lactone content); format: physicochemical; settings: for lactone content after storage: 20 and 40 hours (final value); for lactone impurity content of starting product: before storage; for chemical stability compared to Rosuvastatin acid: 40 h, hemihydrate
Procedure: Stability Studies at 40° C. Under Vacuum of Co-crystal Rosuvastatin 2-Aminopyrimidine Hemihydrates Compared to Rosuvastatin
The co-crystal has only 3 impurities at 5.651, 5.948 and 6.674 (lactone) min.
For RSV, only some impurities (impurities in common with the co-crystal or impurities with a significant variation) were studied.
Storage conditions: 40° C. under vacuum for 20 and 40 hours.

[2] = cited from earlier work
[3] = Solubility in a series of solvents at room temperature; format: physicochemical
Text: The solubility of co-crystal Rosuvastatin 2-aminopyrimidine hemihydrate in a series of solvents at room temperature is provided in Table 2 given below: […]

[4] = Solid-state stability, stored at room temperature in a sealed vial (XRPD); format: physicochemical; settings: 3 weeks
[5] = Humidity stability, stored at room temperature at RH 100% (XRPD); format: physicochemical; settings: RH of 100%, 24 h
Text: Moreover, the solid maintains its good handling properties.

[6] = Polymorphism observed during screening and purification studies; format: physicochemical; settings: during screening and studies of the purification of Rosuvastatin
Text: Co-crystals of the present invention have a relative lack of polymorphism due to the higher complexity of the crystal structure: polymorphs of co-crystal Rosuvastatin 2-aminopyrimidine hemihydrate were not observed during screening and studies of the purification of Rosuvastatin. In contrast, form salts of Rosuvastatin amines having different polymorphs.

[7] = 40° C. under vacuum, 20 and 40 hours

Q: With `CC(C)c1nc(N(C)S(C)(=O)=O)nc(-c2ccc(F)cc2)c1/C=C/[C@@H](O)C[C@@H](O)CC(=O)O` [RSV, (E)-(3R,5S)-7-[4-(4-Fluorophenyl)-6-isopropyl-2-[(methylsulfonyl)(methyl)amino]pyrimidin-5-yl]-3,5-dihydroxyhept-6-enoic acid, reference compound] as the compound, how does the “change of other impurities on storage” value [1, 7] read?
A: Its value is “increased with time”.

Q: And the “lactone content after storage” value ([1]; 40° C. under vacuum)?
A: Its value is 39.84%.

Q: And the “lactone impurity content of starting product” value [1]?
A: Its value is 17.267%.

Q: What about the pKa [2] of the same compound?
A: Its pKa is 4.6.

Q: With `c1ccc2nccnc2c1` [quinoxaline] as the compound, how does the pKa [2] read?
A: Its pKa is 0.56.

Q: What does the source list for “Rosuvastatin 2-aminopyrimidine hemihydrate”?
A: solubility in ACN ([3]; ACN): 14 vol.; solubility in AcOEt ([3]; AcOEt): 20 vol.; solubility in Acetone ([3]; Acetone): 4 vol.; solubility in EtOH ([3]; EtOH): 10 vol.; solubility in MIK ([3]; MIK): 45 vol.; solubility in MeOH ([3]; MeOH): 3 vol.; solubility in THF ([3]; THF): 2 vol.; crystalline transformation or loss of crystallinity (XRPD) [4]: does not show crystalline transformation (same XRPD) or loss of crystallinity; XRPD / crystallinity after humidity exposure [5]: same XRPD without loss of crystallinity; change of other impurities on storage [1, 7]: negligible; new impurities on storage [1, 7]: No new impurities were observed; lactone content after storage ([1]; 40° C. under vacuum): 0.091%; chemical stability compared to Rosuvastatin acid ([1]; 40° C. under vacuum, listed as Co-crystal Rosuvastatin 2-aminopyrimidine hemihydrate): higher than the Rosuvastatin acid; chemical stability compared to Rosuvastatin acid ([1]; 40° C. under vacuum, listed as co-crystal): higher than the stability of the Rosuvastatin acid; lactone impurity content of starting product [1]: 0.036%; polymorphs observed [6]: not observed
